Measurements published in ChEMBL document CHEMBL4673234, “Design, synthesis, biological evaluation and molecular docking of new uracil analogs-1,2,4-oxadiazole hybrids as potential anticancer agents” (Bioorg Med Chem Lett, 2020).

Columns and labels:
HT-1080 [1] = assay: Cytotoxicity against human HT-1080 cells assessed as reduction in cell viability incubated for 48 hrs; type: functional, cell-based; details: HT-1080, 48 h
A549 [2] = assay: Cytotoxicity against human A549 cells assessed as reduction in cell viability incubated for 48 hrs; type: functional, cell-based; details: A549, 48 h
MCF7 = assay: Cytotoxicity against human MCF7 cells assessed as reduction in cell viability incubated for 48 hrs; type: functional, cell-based; details: MCF7, 48 h
MDA-MB-231 = assay: Cytotoxicity against human MDA-MB-231 cells assessed as reduction in cell viability incubated for 48 hrs; type: functional, cell-based; details: MDA-MB-231, 48 h
A-375 [3] = assay: Cytotoxicity against human A-375 cells assessed as cell viability at 5 uM incubated for 48 hrs (reference value: 100 %); type: functional; details: read-out: Activity
A-375 [4] = assay: Cytotoxicity against human A-375 cells assessed as cell viability at 10 uM incubated for 48 hrs (reference value: 100 %); type: functional; details: read-out: Activity
HT-1080 [5] = assay: Induction of apoptosis in human HT-1080 cells assessed as viable cells at 5 uM incubated for 24 hrs by AnnexinV-FITC/7-AAD double staining based analysis (reference value: 97.92 %); type: functional; details: read-out: Activity
HT-1080 [6] = assay: Induction of apoptosis in human HT-1080 cells assessed as early apoptotic cells at 5 uM incubated for 24 hrs by AnnexinV-FITC/7-AAD double staining based analysis (reference value: 1.22 %); type: functional
HT-1080 [7] = assay: Induction of apoptosis in human HT-1080 cells assessed as late apoptotic cells at 5 uM incubated for 24 hrs by AnnexinV-FITC/7-AAD double staining based analysis (reference value: 0.12 %); type: functional
HT-1080 [8] = assay: Induction of apoptosis in human HT-1080 cells assessed as necrotic cells at 5 uM incubated for 24 hrs by AnnexinV-FITC/7-AAD double staining based analysis (reference value: 0.73 %); type: functional
A549 [9] = assay: Induction of apoptosis in human A549 cells assessed as viable cells at 5 uM incubated for 24 hrs by AnnexinV-FITC/7-AAD double staining based analysis (reference value: 89.88 %); type: functional; details: read-out: Activity
A549 [10] = assay: Induction of apoptosis in human A549 cells assessed as early apoptotic cells at 5 uM incubated for 24 hrs by AnnexinV-FITC/7-AAD double staining based analysis (reference value: 6.07 %); type: functional
A549 [11] = assay: Induction of apoptosis in human A549 cells assessed as late apoptotic cells at 5 uM incubated for 24 hrs by AnnexinV-FITC/7-AAD double staining based analysis (reference value: 3.01 %); type: functional
A549 [12] = assay: Induction of apoptosis in human A549 cells assessed as necrotic cells at 5 uM incubated for 24 hrs by AnnexinV-FITC/7-AAD double staining based analysis (reference value: 1.04 %); type: functional
HT-1080 [13] = assay: Induction of mitochondrial membrane potential dysfunction in human HT-1080 cells assessed as viable cells at 5 uM incubated for 24 hrs by flow cytometry analysis (reference value: 90.10 %); type: functional; details: read-out: Activity
HT-1080 [14] = assay: Induction of mitochondrial membrane potential dysfunction in human HT-1080 cells assessed as dead cells at 5 uM incubated for 24 hrs by flow cytometry analysis (reference value: 7.61 %); type: functional
HT-1080 [15] = assay: Induction of mitochondrial membrane potential dysfunction in human HT-1080 cells assessed as depolarized dead cells at 5 uM incubated for 24 hrs by flow cytometry analysis (reference value: 0.0 %); type: functional
HT-1080 [16] = assay: Induction of mitochondrial membrane potential dysfunction in human HT-1080 cells assessed as depolarized live cells at 5 uM incubated for 24 hrs by flow cytometry analysis (reference value: 2.28 %); type: functional
A549 [17] = assay: Induction of mitochondrial membrane potential dysfunction in human A549 cells assessed as viable cells at 5 uM incubated for 24 hrs by flow cytometry analysis (reference value: 86.64 to 88.54 %); type: functional; details: read-out: Activity
A549 [18] = assay: Induction of mitochondrial membrane potential dysfunction in human A549 cells assessed as dead cells at 5 uM incubated for 24 hrs by flow cytometry analysis (reference value: 9.92 %); type: functional
A549 [19] = assay: Induction of mitochondrial membrane potential dysfunction in human A549 cells assessed as depolarized dead cells at 5 uM incubated for 24 hrs by flow cytometry analysis (reference value: 0.39 %); type: functional
A549 [20] = assay: Induction of mitochondrial membrane potential dysfunction in human A549 cells assessed as depolarized live cells at 5 uM incubated for 24 hrs by flow cytometry analysis (reference value: 1.16 %); type: functional
[21] = target: T1, Caspase-3/Caspase-7 (Homo sapiens) (UniProt P42574+P55210); assay: Induction of caspase 3/7 proteolytic activity in human HT-1080 cells assessed as induction of apoptosis by measuring viable cells at 5 uM incubated for 24 hrs by flow cytometry analysis (reference value: 91.39 %); type: cell-based; details: filed as activator
[22] = target: T1, Caspase-3/Caspase-7 (Homo sapiens); assay: Induction of caspase 3/7 proteolytic activity in human HT-1080 cells assessed as induction of apoptosis by measuring apoptotic cells at 5 uM incubated for 24 hrs by flow cytometry analysis (reference value: 1.48 %); type: cell-based
[23] = target: T1, Caspase-3/Caspase-7 (Homo sapiens); assay: Induction of caspase 3/7 proteolytic activity in human HT-1080 cells assessed as induction of apoptosis by measuring apoptotic/dead cells at 5 uM incubated for 24 hrs by flow cytometry analysis (reference value: 4.97 %); type: cell-based
[24] = target: T1, Caspase-3/Caspase-7 (Homo sapiens); assay: Induction of caspase 3/7 proteolytic activity in human HT-1080 cells assessed as induction of apoptosis by measuring dead cells at 5 uM incubated for 24 hrs by flow cytometry analysis (reference value: 2.15 %); type: cell-based
[25] = target: T1, Caspase-3/Caspase-7 (Homo sapiens); assay: Induction of caspase 3/7 proteolytic activity in human A549 cells assessed as induction of apoptosis by measuring viable cells at 5 uM incubated for 24 hrs by flow cytometry analysis (reference value: 88.91 %); type: cell-based; details: filed as activator
[26] = target: T1, Caspase-3/Caspase-7 (Homo sapiens); assay: Induction of caspase 3/7 proteolytic activity in human A549 cells assessed as induction of apoptosis by measuring apoptotic cells at 5 uM incubated for 24 hrs by flow cytometry analysis (reference value: 2.54 %); type: cell-based
[27] = target: T1, Caspase-3/Caspase-7 (Homo sapiens); assay: Induction of caspase 3/7 proteolytic activity in human A549 cells assessed as induction of apoptosis by measuring apoptotic/dead cells at 5 uM incubated for 24 hrs by flow cytometry analysis (reference value: 5.65 %); type: cell-based
[28] = target: T1, Caspase-3/Caspase-7 (Homo sapiens); assay: Induction of caspase 3/7 proteolytic activity in human A549 cells assessed as induction of apoptosis by measuring dead cells at 5 uM incubated for 24 hrs by flow cytometry analysis (reference value: 2.90 %); type: cell-based
HT-1080 [29] = assay: Induction of cell cycle arrest in human HT-1080 cells assessed as G0/G1 phase at 5 uM incubated for 24 hrs by flow cytometry analysis (reference value: 63 %); type: functional
HT-1080 [30] = assay: Induction of cell cycle arrest in human HT-1080 cells assessed as S phase at 5 uM incubated for 24 hrs by flow cytometry analysis (reference value: 10.3 %); type: functional
HT-1080 [31] = assay: Induction of cell cycle arrest in human HT-1080 cells assessed as G2/M phase at 5 uM incubated for 24 hrs by flow cytometry analysis (reference value: 25.6 %); type: functional
A549 [32] = assay: Induction of cell cycle arrest in human A549 cells assessed as G0/G1 phase at 5 uM incubated for 24 hrs by flow cytometry analysis (reference value: 73.5 %); type: functional
A549 [33] = assay: Induction of cell cycle arrest in human A549 cells assessed as S phase at 5 uM incubated for 24 hrs by flow cytometry analysis (reference value: 9.6 %); type: functional
A549 [34] = assay: Induction of cell cycle arrest in human A549 cells assessed as G2/M phase at 5 uM incubated for 24 hrs by flow cytometry analysis (reference value: 11.6 %); type: functional
HT-1080 [35] = assay: Induction of apoptosis in human HT-1080 cells at 5 uM incubated for 24 hrs by AnnexinV-FITC/7-AAD double staining based analysis relative to control; type: functional
HT-1080 [36] = assay: Induction of apoptosis in human HT-1080 cells assessed as early apoptotic cells at 5 uM incubated for 24 hrs by AnnexinV-FITC/7-AAD double staining based analysis relative to control; type: functional
HT-1080 [37] = assay: Induction of apoptosis in human HT-1080 cells at 5 uM incubated for 24 hrs by AnnexinV-FITC/7-AAD double staining based analysis (reference value: 1.34%); type: functional
A549 [38] = assay: Induction of apoptosis in human A549 cells at 5 uM incubated for 24 hrs by AnnexinV-FITC/7-AAD double staining based analysis relative to control; type: functional
A549 [39] = assay: Induction of apoptosis in human A549 cells assessed as early apoptotic cells at 5 uM incubated for 24 hrs by AnnexinV-FITC/7-AAD double staining based analysis relative to control; type: functional
A549 [40] = assay: Induction of apoptosis in human A549 cells at 5 uM incubated for 24 hrs by AnnexinV-FITC/7-AAD double staining based analysis (reference value: 9.08%); type: functional
[41] = Induction of caspase 3/7 proteolytic activity in human HT-1080 cells assessed as induction of apoptosis at 5 uM incubated for 24 hrs by flow cytometry analysis relative to control; type: functional
[42] = Induction of caspase 3/7 proteolytic activity in human A549 cells assessed as induction of apoptosis at 5 uM incubated for 24 hrs by flow cytometry analysis relative to control; type: functional

T1 sequence (P42574 whole entry, looked up): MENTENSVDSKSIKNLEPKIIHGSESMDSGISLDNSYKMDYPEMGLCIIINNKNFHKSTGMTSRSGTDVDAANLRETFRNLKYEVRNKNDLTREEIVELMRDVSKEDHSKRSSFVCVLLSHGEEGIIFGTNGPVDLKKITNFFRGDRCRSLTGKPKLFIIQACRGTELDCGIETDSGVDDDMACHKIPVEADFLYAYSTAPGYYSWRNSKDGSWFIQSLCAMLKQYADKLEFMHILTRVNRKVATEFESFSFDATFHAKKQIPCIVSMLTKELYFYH
T1 sequence (P55210 whole entry, looked up): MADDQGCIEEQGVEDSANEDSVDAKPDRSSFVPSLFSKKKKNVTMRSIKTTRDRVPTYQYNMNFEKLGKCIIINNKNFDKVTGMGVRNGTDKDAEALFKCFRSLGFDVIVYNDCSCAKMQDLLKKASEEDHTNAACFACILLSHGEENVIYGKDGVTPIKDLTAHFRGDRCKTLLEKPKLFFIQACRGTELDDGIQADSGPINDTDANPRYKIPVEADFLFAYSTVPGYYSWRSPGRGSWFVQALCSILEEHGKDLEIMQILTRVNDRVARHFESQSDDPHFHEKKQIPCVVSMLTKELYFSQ

For `COc1cccc2c1C(=O)c1c(O)c3c(c(O)c1C2=O)C[C@@](O)(C(=O)CO)C[C@@H]3O[C@H]1C[C@H](N)[C@H](O)[C@H](C)O1` [DOXORUBICIN], the IC50 (HT-1080 [1]) was 930 nM, the IC50 (A549 [2]) was 2670 nM and the IC50 (MCF7) was 1830 nM. For the same molecule, the IC50 (MDA-MB-231) was 3410 nM.
For `COc1ccc(-c2nc(-c3ccc(Cn4ccc(=O)[nH]c4=O)cc3)no2)cc1`, the viability at 5 µM (A-375 [3]) was 59% and the viability at 10 µM (A-375 [4]) was 55%.
Molecule `COc1ccc(-c2nc(-c3ccc(Cn4cc(F)c(=O)[nH]c4=O)cc3)no2)cc1` has a viability at 5 µM (A-375 [3]) of 50% and a viability at 10 µM (A-375 [4]) of 82%.
`O=c1[nH]c(=O)n(Cc2ccc(-c3noc(-c4ccc(-c5ccccc5)cc4)n3)cc2)cc1F` showed a viability at 5 µM (A-375 [3]) of 29%, a viability at 10 µM (A-375 [4]) of 17% and an IC50 (HT-1080 [1]) of 880 nM. It also gave an IC50 (A549 [2]) of 3120 nM, an IC50 (MCF7) of 1190 nM and an IC50 (MDA-MB-231) of 8370 nM. For the same molecule, the viability at 5 µM (HT-1080 [5]) was 84.7%, the Activity (HT-1080 [6]) was 4.25% and the Activity (HT-1080 [7]) was 9.56%. It also gave an Activity (HT-1080 [8]) of 1.49%, a viability at 5 µM (A549 [9]) of 72.7% and an Activity (A549 [10]) of 9.29%. It also gave an Activity (A549 [11]) of 14.72%, an Activity (A549 [12]) of 3.26% and a viability at 5 µM (HT-1080 [13]) of 78.7%. For the same molecule, the Activity (HT-1080 [14]) was 16.96%, the Activity (HT-1080 [15]) was 0% and the Activity (HT-1080 [16]) was 3.61%. It also gave a viability at 5 µM (A549 [17]) of 78%, an Activity (A549 [18]) of 20.29% and an Activity (A549 [19]) of 0.63%. It also gave an Activity (A549 [20]) of 1.03%, an Activity [21] of 68.6% and an Activity [22] of 2.87%. It also gave an Activity [23] of 19.4%, an Activity [24] of 9.15% and an Activity [25] of 64.3%. For the same molecule, the Activity [26] was 3.25%, the Activity [27] was 25.8% and the Activity [28] was 6.64%. For the same molecule, the Activity (HT-1080 [29]) was 59.9%, the Activity (HT-1080 [30]) was 13.9% and the Activity (HT-1080 [31]) was 24.1%. It also gave an Activity (A549 [32]) of 71.8%, an Activity (A549 [33]) of 12% and an Activity (A549 [34]) of 11.5%. For the same molecule, the “fold change (FC)” value (HT-1080 [35]) was 10, the “fold change (FC)” value (HT-1080 [36]) was 3.5 and the Activity (HT-1080 [37]) was 13.81%. The “fold change (FC)” value (A549 [38]) was 3, the “fold change (FC)” value (A549 [39]) was 1.5 and the Activity (A549 [40]) was 29.01%. For the same molecule, the “fold change (FC)” value [41] was 3 and the “fold change (FC)” value [42] was 3.
With `O=c1cnn(Cc2ccc(-c3noc(-c4ccccc4)n3)cc2)c(=O)[nH]1` the viability at 5 µM (A-375 [3]) was 100% and the viability at 10 µM (A-375 [4]) was 62%.
For `COc1ccc(-c2nc(-c3ccc(Cn4ncc(=O)[nH]c4=O)cc3)no2)cc1`, the viability at 5 µM (A-375 [3]) was 53% and the viability at 10 µM (A-375 [4]) was 55%.
